Assay [1] has as its target T1, Mineralocorticoid receptor (Homo sapiens) (UniProt P08235).
T1 sequence (whole entry): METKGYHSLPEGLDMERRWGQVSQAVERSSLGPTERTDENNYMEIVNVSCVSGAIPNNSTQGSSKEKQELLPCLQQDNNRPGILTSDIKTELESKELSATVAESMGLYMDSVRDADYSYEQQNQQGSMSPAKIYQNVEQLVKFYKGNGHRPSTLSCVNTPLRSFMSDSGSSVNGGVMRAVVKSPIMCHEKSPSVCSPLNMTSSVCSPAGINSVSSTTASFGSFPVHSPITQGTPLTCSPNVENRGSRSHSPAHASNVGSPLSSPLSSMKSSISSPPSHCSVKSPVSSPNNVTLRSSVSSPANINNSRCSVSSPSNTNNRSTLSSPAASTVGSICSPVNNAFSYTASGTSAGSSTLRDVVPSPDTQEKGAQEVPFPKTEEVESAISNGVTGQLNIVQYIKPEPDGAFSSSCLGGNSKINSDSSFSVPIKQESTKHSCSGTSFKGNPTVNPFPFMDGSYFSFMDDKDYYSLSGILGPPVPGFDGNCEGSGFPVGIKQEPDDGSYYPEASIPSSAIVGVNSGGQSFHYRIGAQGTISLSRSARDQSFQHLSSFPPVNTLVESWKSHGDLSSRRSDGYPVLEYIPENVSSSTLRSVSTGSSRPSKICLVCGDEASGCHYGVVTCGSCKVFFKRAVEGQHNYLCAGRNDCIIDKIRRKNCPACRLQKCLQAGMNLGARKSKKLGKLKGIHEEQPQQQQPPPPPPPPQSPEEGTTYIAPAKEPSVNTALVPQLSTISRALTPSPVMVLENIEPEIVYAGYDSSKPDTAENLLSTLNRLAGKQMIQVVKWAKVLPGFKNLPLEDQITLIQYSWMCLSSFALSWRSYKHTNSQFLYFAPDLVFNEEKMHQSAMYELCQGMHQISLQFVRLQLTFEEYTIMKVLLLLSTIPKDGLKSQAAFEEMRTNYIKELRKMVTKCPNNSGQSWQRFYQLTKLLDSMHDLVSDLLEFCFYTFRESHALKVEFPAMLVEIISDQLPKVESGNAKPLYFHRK

For assay [2], the target named is T2, Progesterone receptor (Homo sapiens) (UniProt P06401).
T2 sequence (whole entry): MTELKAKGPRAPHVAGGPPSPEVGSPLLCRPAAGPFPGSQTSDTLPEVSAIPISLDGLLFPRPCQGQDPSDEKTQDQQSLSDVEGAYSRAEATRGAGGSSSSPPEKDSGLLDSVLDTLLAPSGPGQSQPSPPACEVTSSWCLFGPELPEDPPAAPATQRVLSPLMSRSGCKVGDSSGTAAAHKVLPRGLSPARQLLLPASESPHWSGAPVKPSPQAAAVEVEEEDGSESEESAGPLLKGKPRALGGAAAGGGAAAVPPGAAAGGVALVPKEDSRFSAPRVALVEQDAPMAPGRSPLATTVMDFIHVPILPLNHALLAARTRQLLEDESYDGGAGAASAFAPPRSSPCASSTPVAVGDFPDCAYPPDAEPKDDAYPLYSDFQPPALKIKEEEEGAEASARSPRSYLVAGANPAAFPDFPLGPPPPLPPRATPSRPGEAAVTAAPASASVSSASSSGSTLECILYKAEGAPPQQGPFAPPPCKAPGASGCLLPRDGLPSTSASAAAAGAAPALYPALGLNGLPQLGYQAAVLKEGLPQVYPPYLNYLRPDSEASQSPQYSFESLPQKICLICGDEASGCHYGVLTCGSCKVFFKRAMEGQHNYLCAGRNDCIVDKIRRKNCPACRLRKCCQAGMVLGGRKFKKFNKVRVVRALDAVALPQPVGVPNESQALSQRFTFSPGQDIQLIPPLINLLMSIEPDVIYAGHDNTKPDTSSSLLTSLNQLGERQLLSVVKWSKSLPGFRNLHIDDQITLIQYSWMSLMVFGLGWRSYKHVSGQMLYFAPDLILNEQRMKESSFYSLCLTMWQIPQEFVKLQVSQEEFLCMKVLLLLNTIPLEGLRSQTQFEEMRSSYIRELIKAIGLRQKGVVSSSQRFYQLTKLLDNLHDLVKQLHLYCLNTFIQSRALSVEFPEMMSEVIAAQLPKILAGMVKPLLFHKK
Description: (§1) Antagonist activity against human Progesterone receptor by displacement of radioligand

Assay [3] has as its target T3, Glucocorticoid receptor (Homo sapiens) (UniProt P04150).
T3 sequence (whole entry): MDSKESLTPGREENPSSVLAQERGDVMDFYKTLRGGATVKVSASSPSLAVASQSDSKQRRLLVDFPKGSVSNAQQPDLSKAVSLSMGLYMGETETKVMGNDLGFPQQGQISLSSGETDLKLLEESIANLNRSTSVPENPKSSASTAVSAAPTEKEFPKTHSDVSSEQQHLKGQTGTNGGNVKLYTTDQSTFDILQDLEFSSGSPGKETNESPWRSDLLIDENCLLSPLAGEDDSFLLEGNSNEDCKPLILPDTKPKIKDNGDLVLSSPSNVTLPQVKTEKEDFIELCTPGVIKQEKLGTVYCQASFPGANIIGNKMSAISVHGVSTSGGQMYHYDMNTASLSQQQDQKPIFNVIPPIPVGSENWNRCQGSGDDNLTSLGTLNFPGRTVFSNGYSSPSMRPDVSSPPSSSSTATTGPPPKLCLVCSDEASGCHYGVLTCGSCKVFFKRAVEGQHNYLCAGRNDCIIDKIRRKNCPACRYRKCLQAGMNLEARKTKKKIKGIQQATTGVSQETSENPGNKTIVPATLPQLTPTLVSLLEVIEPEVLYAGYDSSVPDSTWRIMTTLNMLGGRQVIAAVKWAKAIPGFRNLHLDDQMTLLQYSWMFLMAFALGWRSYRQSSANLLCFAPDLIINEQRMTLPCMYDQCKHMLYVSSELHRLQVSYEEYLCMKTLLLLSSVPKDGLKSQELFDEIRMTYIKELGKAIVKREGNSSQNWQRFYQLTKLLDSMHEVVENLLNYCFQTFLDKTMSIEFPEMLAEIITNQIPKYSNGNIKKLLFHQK
Description: (§2) Antagonist activity as displacement of 10 nM [3H]dexamethasone from human Glucocorticoid receptor

The target in assay [4] is T1, Mineralocorticoid receptor (Homo sapiens). The source holds these as a separate data set.
In assay [5] the target is T4, Estrogen receptor (Homo sapiens) (UniProt P03372).
T4 sequence (whole entry): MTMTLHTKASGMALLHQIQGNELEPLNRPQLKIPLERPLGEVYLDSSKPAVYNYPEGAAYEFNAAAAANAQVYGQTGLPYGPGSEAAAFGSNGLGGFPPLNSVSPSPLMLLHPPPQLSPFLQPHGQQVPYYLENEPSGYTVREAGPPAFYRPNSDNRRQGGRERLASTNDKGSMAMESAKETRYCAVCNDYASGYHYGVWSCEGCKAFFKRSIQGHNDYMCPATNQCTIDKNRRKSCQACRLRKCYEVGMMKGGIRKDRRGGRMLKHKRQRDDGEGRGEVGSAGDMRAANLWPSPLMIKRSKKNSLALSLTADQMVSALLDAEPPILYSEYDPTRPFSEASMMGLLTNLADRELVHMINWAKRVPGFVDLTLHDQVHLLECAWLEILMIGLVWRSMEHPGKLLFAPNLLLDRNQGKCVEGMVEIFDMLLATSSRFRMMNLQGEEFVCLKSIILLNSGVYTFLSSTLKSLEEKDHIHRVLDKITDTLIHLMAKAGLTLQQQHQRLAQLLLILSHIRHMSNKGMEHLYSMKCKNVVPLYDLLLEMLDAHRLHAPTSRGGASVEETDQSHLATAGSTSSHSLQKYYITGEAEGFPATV
Briefly: Displacement of radioligand from human Estrogen receptor alpha, percent inhibition at 10 uM.

Assay [6] has as its target T2, Progesterone receptor (Homo sapiens). The source holds these as a separate data set.
Description: as §1
Assay [7] has as its target T5, Estrogen receptor beta (Homo sapiens, UniProt Q92731). Briefly: Displacement of radioligand from human Estrogen receptor beta, percent inhibition at 10 uM.
Assay [8] concerns the target T6, Glucocorticoid receptor (Homo sapiens, UniProt P04150).
T6 sequence (P04150 whole entry): T3 sequence (whole entry)
Kind of assay: Displacement of 10 nM [3H]dexamethasone from human Glucocorticoid receptor.

The target in assay [9] is T7, Androgen receptor (Homo sapiens, UniProt P10275).
T7 sequence (P10275 whole entry): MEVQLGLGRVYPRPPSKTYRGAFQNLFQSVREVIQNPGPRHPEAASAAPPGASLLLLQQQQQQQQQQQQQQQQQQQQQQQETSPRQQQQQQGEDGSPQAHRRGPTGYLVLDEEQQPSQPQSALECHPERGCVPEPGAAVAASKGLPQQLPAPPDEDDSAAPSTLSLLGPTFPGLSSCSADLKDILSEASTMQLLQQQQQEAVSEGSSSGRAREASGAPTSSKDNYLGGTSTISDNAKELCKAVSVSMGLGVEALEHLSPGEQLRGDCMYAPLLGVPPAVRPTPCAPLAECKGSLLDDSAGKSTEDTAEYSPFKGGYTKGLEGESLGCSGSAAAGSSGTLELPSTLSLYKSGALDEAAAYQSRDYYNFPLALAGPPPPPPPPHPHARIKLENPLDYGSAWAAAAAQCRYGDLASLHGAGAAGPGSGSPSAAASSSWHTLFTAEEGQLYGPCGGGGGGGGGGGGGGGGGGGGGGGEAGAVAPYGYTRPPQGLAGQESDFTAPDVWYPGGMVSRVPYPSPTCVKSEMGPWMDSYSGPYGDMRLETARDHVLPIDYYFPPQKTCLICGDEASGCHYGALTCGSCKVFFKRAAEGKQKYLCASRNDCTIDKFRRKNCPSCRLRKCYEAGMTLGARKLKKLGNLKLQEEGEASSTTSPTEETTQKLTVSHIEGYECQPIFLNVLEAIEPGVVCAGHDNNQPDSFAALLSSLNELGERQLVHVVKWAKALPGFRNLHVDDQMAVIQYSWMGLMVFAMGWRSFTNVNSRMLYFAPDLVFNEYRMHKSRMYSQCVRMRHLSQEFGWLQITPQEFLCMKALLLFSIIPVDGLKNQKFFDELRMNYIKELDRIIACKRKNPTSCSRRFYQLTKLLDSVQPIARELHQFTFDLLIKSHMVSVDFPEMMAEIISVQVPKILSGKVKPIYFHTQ
Briefly: Displacement of [3H]DHT from human Androgen receptor. For orientation: Displacement assays read how much labelled ligand stays bound in the presence of the test substance.

In assay [10] the target is T8, Progesterone receptor (Homo sapiens, UniProt P06401).
T8 sequence (P06401 whole entry): T2 sequence (whole entry)
Briefly: Displacement of radioligand from human Progesterone receptor.

Assay [11] deals with T5, Estrogen receptor beta. Briefly: Displacement of radioligand from human ER beta.
Assay [12] concerns the target T9, Estrogen receptor (Homo sapiens, UniProt P03372).
T9 sequence (P03372 whole entry): T4 sequence (whole entry)
Briefly: Displacement of radioligand from human Estrogen receptor alpha.

The target in assay [13] is T1, Mineralocorticoid receptor (Homo sapiens). Kind of assay: Antagonist activity against human mineralocorticoid receptor as displacement of radioligand, percent […]. In kind it is functional.
In assay [14] the target is T2, Progesterone receptor (Homo sapiens). Particulars: 1 uM.
Description: Antagonist activity against human Progesterone receptor as displacement of radioligand, percent inhibition at 1 uM
Assay [15] addresses T3, Glucocorticoid receptor (Homo sapiens). The source holds these as a separate data set.
Description: as §2

SMILES strings stand for the structures. Some results are limits rather than exact numbers.

T5 sequence (Q92731 whole entry): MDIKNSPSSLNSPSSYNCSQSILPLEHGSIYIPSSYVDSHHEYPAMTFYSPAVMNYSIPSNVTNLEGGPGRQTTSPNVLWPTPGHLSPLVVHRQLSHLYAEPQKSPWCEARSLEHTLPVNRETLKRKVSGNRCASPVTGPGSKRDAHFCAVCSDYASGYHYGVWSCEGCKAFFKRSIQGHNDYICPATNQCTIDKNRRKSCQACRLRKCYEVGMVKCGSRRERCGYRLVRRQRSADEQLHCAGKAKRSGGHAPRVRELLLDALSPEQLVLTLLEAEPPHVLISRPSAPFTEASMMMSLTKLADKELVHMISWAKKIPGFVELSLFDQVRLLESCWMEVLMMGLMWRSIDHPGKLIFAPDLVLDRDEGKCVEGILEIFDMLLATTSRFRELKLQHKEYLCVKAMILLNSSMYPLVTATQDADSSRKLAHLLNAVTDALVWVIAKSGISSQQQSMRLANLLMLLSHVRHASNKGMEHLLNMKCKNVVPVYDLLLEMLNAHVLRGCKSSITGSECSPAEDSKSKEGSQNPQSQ

As for `COc1ccc2c(c1)CCC1=CC(=O)CCC12Cc1ccccc1` (single isomer, unassigned; form 2) [listing 1 of 2 here], the Kif in assay [1], in [2] and in assay [3] was over 1000 nM in each case.
As usually defined, the inhibition is the relative decrease from the control value, in per cent. Read a high inhibition as a strong effect. As to `O=C1C=C2CCc3cc(O)ccc3C2(Cc2ccccc2)CC1` (single isomer, unassigned; form 2) [listing 1 of 2 here], the Kif in assay [4], in [6] and in assay [3] was over 1000 nM each time. Moreover, the values for the inhibition in [5] and in [7] were 70% and 39%, respectively.
Broadly, the Ki is the dissociation constant of the complex between target and ligand, obtained from inhibition or displacement. Read a high Ki as a looser hold on the target. Turning to `COc1ccc2c(c1)CCC1=CC(=O)CCC12Cc1ccccc1` (single isomer, unassigned; form 2) [listing 2 of 2 here], the Ki in assay [8] was over 10 µM; in assay [9], 0.054 µM; in [10] it was over 10 µM; in assay [11], over 10 µM; in assay [12], over 10 µM.
Consider `COc1ccc2c(c1)CCC1=CC(=O)CCC12Cc1ccccc1` (single isomer, unassigned; form 1) [listing 1 of 2 here], for which the Kif in assay [4], in assay [6] and in [3] was over 1000 nM in each case. This molecule had an inhibition in [5] of 27%.
As to `O=C1C=C2CCc3cc(O)ccc3C2(Cc2ccccc2)CC1` (single isomer, unassigned; form 2) [listing 2 of 2 here], the figures for the Ki in [8], in assay [9] and in assay [10] were 0.157 µM, 0.18 µM and over 10 µM, respectively.
For the molecule `O=C1C=C2CCc3cc(O)ccc3C2(Cc2ccccc2)CC1` (single isomer, unassigned; form 1) [listing 1 of 2 here], the Ki in [8], in assay [9] and in [10] was over 10 µM throughout.
For `COc1ccc2c(c1)CCC1=CC(=O)CCC12Cc1ccccc1` (single isomer, unassigned; form 1) [listing 2 of 2 here], the Ki in [8] was over 10 µM; in [9] it was 0.69 µM; in assay [10] it was over 10 µM; in assay [11], over 10 µM.
Regarding `CC#C[C@]1(O)CC[C@H]2[C@@H]3CCC4=CC(=O)CCC4=C3[C@@H](c3ccc(N(C)C)cc3)C[C@@]21C`, the Kif in assay [1] was under 10 nM; in assay [6], 11.8 nM; in assay [3], 2 nM. Further, the inhibition in [5] turned out to be 44%; in [13], 69.7%; in assay [14], 100%; in [7], 92%.
Regarding `O=C1C=C2CCc3cc(O)ccc3C2(Cc2ccccc2)CC1` (single isomer, unassigned; form 1) [listing 2 of 2 here], the Kif in [4], in [15] and in assay [6] was over 1000 nM each time. The results for the inhibition in assay [5] and in assay [7] were 36% and 24%, respectively.

(Values after ChEMBL document CHEMBL1135457 (J Med Chem, 2002).)
